Data on two molecules can be found in patent US10420758B2, “Indolinyl-sulfonamide inhibitors of tankyrase and methods of use thereof” (The Board of Regents of the University of Texas System, priority 2015, dated 2019).

The structures appear in SMILES notation.

In one assay the test system is HeLa cells. Put plainly: Terminal restriction fragment (TRF) telomere length assay. It counts as cell-based, human. As to conditions: up to 40 population doublings, FIGS. 6A-B. Here is the method:
FIGS. 6A-6C show Tnks inhibitors but not a Porcn inhibitor induce telomeric shortening. […] HeLa cells were incubated with IWR-1, IWR-8, or IWP-6 at various concentrations for the indicated number of population doublings (PD) and telomere length measured by terminal restriction fragment (TRF) analysis. Density of radioprobe hybridization relative to the vertical distance from the largest molecular weight marker was quantified using ImageJ and the point of highest density in each lane marked by a dark line. Position of control telomere restricted fragment signal is indicated with dotted line. Lanes with insufficient strength in labeling or that were disrupted with blemishes during experimental processing were not quantified. […] The same assay described in “A” was used to test the Porcn inhibitor IWP-2. (FIG. 6C) Model of Tnks-dependent regulation of Wnt/β-catenin transcriptional and telomere length maintenance in human cells. Excessive Terf1 binding to DNA in the absence of Tnks-mediated Terf1 parsylation results in replication fork stalling in telomeres (Munoz, et al., 2009; Ohki and Ishikawa, 2004) which then presumably results in telomere shortening. […]
1×10^6 cells were collected and washed with PBS. […] Gels were exposed to a Phosphorlmager screen overnight and analyzed using a Typhoon Phosphorlmager scanner system (Molecular Dynamics). […]

A further assay concerns the target PARP11 (Homo sapiens, UniProt Q9NR21). Put plainly: PARP profiling, parsylation of immobilized histone. The note with it: IWR compounds 10 μM. It counts as biochemical. Here is the method:
(§1) Performed by BPS Bioscience Inc., San Diego by following the BPS PARP or TNKS assay kit protocols. The enzymatic reactions were conducted in duplicate at room temperature for 1 hr in a 96 well plate coated with histone substrate. […] of reaction buffer (Tris.HCl, pH 8.0) contains NAD^+, biotinylated NAD^+, activated DNA, recombinant PARP enzyme and 10 μM of the test compound. […] After enzymatic reactions, 50 μL of Streptavidin-horseradish peroxidase was added to each well and the plate was incubated at room temperature for an additional 30 min. 100 μL of developer reagents were added to wells and luminescence was measured using a BioTek Synergy™ 2 microplate reader.

In the next assay the target is PARP1 (Homo sapiens, UniProt P09874). Put plainly: PARP profiling, parsylation of immobilized histone. As to conditions: IWR compounds 10 μM. It counts as biochemical. Here is the method:
as §1

Another assay deals with PARP6 (Homo sapiens, UniProt Q2NL67). Put plainly: PARP profiling, parsylation of immobilized histone. The note with it: IWR compounds 10 μM. It counts as biochemical. Here is the method:
as §1

A further assay has as its target PARP7 (Homo sapiens, UniProt Q7Z3E1). The assay can be described thus: PARP profiling, parsylation of immobilized histone. It counts as biochemical. As to conditions: IWR compounds 10 μM. Here is the method: as §1
Assay [1] has as its target T1, purified Tnks1 SAM-PARP protein (Homo sapiens, UniProt O95271).
T1 construct: purified Tnks1 SAM-PARP protein; provided by Herwig Schüler (gift, not a vendor)
Put plainly: In vitro Tnks activity assay, histone parsylation (HT Universal Color PARP Assay Kit). It counts as biochemical. The note with it: parsylation of immobilized histone, colorimetric, FIG. 2A.
Experimental: Parsylation of immobilized histone protein was determined by colorimetric detection of incorporated biotinylated NAD+ in 96 well format.

Sequence of PARP1 (P09874 whole entry): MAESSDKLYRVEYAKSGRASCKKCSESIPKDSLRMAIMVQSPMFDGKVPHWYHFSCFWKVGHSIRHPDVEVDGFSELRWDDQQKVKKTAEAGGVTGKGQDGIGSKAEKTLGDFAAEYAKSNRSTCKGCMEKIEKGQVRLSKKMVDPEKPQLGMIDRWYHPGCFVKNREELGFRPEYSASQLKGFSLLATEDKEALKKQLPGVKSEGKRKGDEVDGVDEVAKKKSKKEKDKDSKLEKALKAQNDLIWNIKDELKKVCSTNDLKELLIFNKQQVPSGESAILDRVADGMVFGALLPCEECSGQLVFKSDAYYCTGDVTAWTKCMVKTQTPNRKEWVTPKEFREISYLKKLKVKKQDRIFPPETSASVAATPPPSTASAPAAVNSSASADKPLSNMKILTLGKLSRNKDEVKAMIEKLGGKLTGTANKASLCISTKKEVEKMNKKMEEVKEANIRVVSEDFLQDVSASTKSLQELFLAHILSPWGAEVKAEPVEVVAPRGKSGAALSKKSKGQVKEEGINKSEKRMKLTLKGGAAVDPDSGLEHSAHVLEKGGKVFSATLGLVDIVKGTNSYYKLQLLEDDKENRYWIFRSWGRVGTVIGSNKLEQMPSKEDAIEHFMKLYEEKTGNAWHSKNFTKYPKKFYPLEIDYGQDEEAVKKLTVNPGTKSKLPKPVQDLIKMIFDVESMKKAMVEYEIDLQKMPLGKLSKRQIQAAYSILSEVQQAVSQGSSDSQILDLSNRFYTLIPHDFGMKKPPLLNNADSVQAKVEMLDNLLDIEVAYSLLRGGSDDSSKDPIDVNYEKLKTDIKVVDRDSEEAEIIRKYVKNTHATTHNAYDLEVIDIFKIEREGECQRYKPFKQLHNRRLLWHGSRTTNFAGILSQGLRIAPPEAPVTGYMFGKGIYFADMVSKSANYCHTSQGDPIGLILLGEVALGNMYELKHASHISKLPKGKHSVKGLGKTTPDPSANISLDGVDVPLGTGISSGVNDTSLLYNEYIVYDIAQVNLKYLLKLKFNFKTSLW
Sequence of PARP6 (Q2NL67 whole entry): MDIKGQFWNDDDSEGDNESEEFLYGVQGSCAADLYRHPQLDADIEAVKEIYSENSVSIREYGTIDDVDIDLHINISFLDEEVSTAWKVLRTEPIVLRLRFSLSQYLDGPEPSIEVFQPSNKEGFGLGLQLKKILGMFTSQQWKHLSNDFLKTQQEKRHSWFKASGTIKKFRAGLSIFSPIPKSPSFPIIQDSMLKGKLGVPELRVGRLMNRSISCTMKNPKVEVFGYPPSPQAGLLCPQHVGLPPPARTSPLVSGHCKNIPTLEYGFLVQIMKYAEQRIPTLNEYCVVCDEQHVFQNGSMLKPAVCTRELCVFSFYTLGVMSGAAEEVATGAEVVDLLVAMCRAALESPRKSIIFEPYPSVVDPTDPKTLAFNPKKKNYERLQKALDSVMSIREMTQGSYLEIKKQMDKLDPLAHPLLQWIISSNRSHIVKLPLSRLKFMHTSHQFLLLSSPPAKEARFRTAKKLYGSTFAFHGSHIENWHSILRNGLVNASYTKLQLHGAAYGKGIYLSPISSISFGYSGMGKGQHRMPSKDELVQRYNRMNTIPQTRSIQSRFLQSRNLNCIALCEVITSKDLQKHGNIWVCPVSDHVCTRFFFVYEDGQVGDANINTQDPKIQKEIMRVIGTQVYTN
Sequence of PARP7 (Q7Z3E1 whole entry): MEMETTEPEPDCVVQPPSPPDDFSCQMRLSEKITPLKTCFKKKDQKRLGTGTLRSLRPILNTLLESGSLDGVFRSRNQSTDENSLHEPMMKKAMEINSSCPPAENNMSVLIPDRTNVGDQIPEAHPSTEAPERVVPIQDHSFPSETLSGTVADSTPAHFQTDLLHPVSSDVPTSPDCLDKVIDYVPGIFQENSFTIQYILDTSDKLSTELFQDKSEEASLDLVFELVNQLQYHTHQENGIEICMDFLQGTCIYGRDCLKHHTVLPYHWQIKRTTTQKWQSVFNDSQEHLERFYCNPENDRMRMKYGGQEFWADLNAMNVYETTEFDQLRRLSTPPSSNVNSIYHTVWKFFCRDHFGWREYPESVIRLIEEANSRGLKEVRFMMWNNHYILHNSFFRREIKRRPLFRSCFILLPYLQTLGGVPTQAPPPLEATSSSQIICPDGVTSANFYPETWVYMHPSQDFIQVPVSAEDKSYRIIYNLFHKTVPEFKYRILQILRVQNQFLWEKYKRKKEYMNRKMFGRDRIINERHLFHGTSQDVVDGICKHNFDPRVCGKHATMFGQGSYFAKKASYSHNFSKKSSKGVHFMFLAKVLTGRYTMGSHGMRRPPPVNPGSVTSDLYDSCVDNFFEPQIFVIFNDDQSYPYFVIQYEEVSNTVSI
Sequence of PARP11 (Q9NR21 whole entry): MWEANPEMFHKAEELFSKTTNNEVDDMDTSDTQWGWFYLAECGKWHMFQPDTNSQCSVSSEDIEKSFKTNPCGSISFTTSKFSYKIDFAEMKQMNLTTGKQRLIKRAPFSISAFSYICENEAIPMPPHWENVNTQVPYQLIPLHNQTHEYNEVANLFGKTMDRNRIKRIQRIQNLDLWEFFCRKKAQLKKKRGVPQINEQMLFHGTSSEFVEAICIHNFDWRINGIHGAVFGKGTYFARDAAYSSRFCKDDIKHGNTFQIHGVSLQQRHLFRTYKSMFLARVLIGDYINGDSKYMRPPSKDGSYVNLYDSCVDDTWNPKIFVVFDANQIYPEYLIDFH
T1 sequence (O95271 1030-1317 limits assumed): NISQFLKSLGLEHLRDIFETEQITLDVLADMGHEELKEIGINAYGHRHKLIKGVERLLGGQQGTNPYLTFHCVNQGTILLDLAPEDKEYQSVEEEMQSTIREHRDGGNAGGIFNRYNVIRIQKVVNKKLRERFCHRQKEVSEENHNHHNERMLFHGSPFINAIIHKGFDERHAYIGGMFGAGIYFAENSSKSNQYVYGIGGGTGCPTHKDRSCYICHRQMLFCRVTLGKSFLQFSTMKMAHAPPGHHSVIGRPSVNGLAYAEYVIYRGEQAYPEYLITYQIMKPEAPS

For orientation: inhibition means the relative decrease from the control value, in per cent. For `CCN(C(=O)C1CCN(S(=O)(=O)c2cc3c(cc2Br)CCN3C(C)=O)CC1)c1cccc(C)c1` [IWR-8], the telomere length entry in the assay on HeLa cells was “induced shortened telomere length in a dose-dependent manner”. For the same molecule, the inhibition at 10 µM on PARP11 came out at 12%; at PARP1, 0%; at PARP6 it was 0%; on PARP7 it was 8%. Moreover, the “ability to inhibit purified recombinant Tnks1 protein” value in assay [1] is recorded as “directly target Tnks”.

The % inhibition is how much of the control response was suppressed. `O=C(Nc1cccc2cccnc12)c1ccc(N2C(=O)[C@@H]3[C@H](C2=O)[C@@H]2C=C[C@H]3C2)cc1` [IWR-1]: the telomere length result in the assay with HeLa cells was “induced shortened telomere length in a dose-dependent manner”. Besides, the “% inhibition” value on PARP11 was 2%; at PARP1, 0%; at PARP6, 0%; on PARP7 it was 7%.
